Experiment [1] concerns Staphylococcus aureus ATCC 29213. It counts as cell-based. The source says: (§1) Analogs were serially diluted two-fold from stock solutions.
The subject of experiment [2] is Staphylococcus aureus ATCC 43300. It counts as cell-based. The settings on record: for MIC: ATCC 43300; for fold decrease in activity against the methicillin-resistant strain: MIC against MRSA ATCC 43300 compared with MSSA ATCC 29213.
Description: as §1

In the next experiment the test system is S. aureus strain 4-121. The settings on record: broth microdilution, triplicate; isolate 4-121, no resistance profile listed. The source says: (§2) The bacterial strains used in this study included S. aureus ATCC 29213 and ATCC 43300, B. subtilis ATCC […], E. coli ATCC 25922, P. aeruginosa ATCC 27853, and S. enterica serovar Typhimurium ATCC 14028, all of which were purchased from Cedarlane, Canada. Additionally, a collection of 19 S. aureus strains, ranging from antibiotic-sensitive to multidrug-resistant, and originating from clinical intramammary infections (IMI), was selected from the Mastitis Pathogen Culture Collection of the Canadian Bovine Mastitis Research Network (Université de Montréal, St-Hyacinthe, QC, Canada). These strains, previously used in other studies, were also included in this work. S. aureus ATCC 29213 and B. subtilis ATCC 6633 were cultured in Tryptic Soy Broth (TSB) (Difco^TM, Becton, Dickenson & Company, Spark, MD, USA). E. coli ATCC 25922 and P. aeruginosa ATCC 27853 were grown in Luria–Bertani (LB) broth (Fisher Scientific, Fair Lawn, NJ, USA). S. enterica serovar Typhimurium ATCC 14028 was propagated in Nutrient Broth (NB) (Oxoid, Basingstoke, UK). All bacterial cultures were incubated overnight at 37 °C before use and during the performance of assays.
(§3) MIC assays were performed using the broth microdilution method in 96-well plates. Analogs were serially diluted two-fold from stock solutions. The plates were incubated overnight at 37 °C and bacterial growth was monitored by measuring the absorbance at 595 nm over 18–20 h and the assay was performed in triplicate.

Another experiment concerns S. aureus strain 4-131. The conditions noted are these: broth microdilution, triplicate; isolate 4-131, no resistance profile listed.
Description: as §2, §3
Background: In broth dilution the organism is exposed to a series of concentrations in liquid medium.

The next experiment has as its system S. aureus strain 4-133. The conditions noted are these: broth microdilution, triplicate; isolate 4-133, resistance PEN-CEF-CTX-FOX-CIP-CHL-KAN-GEN.
Description: as §2, §3

The test system of the next experiment is S. aureus strain 4-134. The conditions noted are these: broth microdilution, triplicate; isolate 4-134, resistance PEN-VAN-CEF-CTX-FOX-ERY-CC-TET-KAN-GEN-STR.
Description: as §2, §3

The subject of the next experiment is S. aureus strain 4-139. The settings on record: broth microdilution, triplicate; isolate 4-139, resistance PEN-ERY-CC-TET-KAN.
Description: as §2, §3

Another experiment relates to S. aureus strain 4-144. The conditions noted are these: broth microdilution, triplicate; isolate 4-144, resistance PEN-AMC-CEF-CTX-FOX-CIP-CHL-ERY-TET.
Description: as §2, §3

The next experiment relates to S. aureus strain 4-145. The settings on record: broth microdilution, triplicate; isolate 4-145, no resistance profile listed.
Description: as §2, §3

The next experiment deals with S. aureus strain 4-153. The settings on record: broth microdilution, triplicate; isolate 4-153, no resistance profile listed.
Description: as §2, §3

The subject of the next experiment is S. aureus strain 4-156. The conditions noted are these: broth microdilution, triplicate; isolate 4-156, no resistance profile listed.
Description: as §2, §3

The next experiment deals with S. aureus strain 4-157. The conditions noted are these: broth microdilution, triplicate; isolate 4-157, no resistance profile listed.
Description: as §2, §3

Another experiment concerns S. aureus strain 4-159. The conditions noted are these: broth microdilution, triplicate; isolate 4-159, no resistance profile listed.
Description: as §2, §3

The next experiment relates to S. aureus strain 4-162. The conditions noted are these: broth microdilution, triplicate; isolate 4-162, no resistance profile listed.
Description: as §2, §3

The next experiment has as its system S. aureus strain 4-170. The conditions noted are these: broth microdilution, triplicate; isolate 4-170, no resistance profile listed.
Description: as §2, §3

The next experiment deals with S. aureus strain 4-172. The settings on record: broth microdilution, triplicate; isolate 4-172, resistance PEN-AMC-CEF-CTX-FOX.
Description: as §2, §3

Another experiment deals with S. aureus strain 4-173. The settings on record: broth microdilution, triplicate; isolate 4-173, no resistance profile listed.
Description: as §2, §3

For the next experiment, the system named is S. aureus strain A-165. The settings on record: broth microdilution, triplicate; isolate A-165, resistance PEN-CEF-CTX-FOX-CIP-CC-KAN-GEN-STR-P/N.
Description: as §2, §3

The record followed here is paper PMC12024397, “Structure–Activity Study of the Antimicrobial Lipopeptide Humimycin A and Screening Against Multidrug-Resistant Staphylococcus aureus” (Antibiotics, 2025).

One may read the MIC as the smallest concentration in the dilution series that meets the test's criterion for growth inhibition.

SMILES strings stand for the structures. Values after ≈ are worked out from the molar mass of the structure shown. Non-standard residues stand in square brackets, D forms with d. Residues, ends and D or L forms follow the SMILES beside them. *: point of attachment. Tetradecanoyl(3R-OH) = CCCCCCCCCCC[C@@H](O)CC(=O)*; Tetradecanoyl(3S-OH) = CCCCCCCCCCC[C@H](O)CC(=O)*

For `CCCCCCCCCCC[C@@H](O)CC(=O)N[C@@H](Cc1c[nH]c2ccccc12)C(=O)N[C@@H](CO)C(=O)N[C@H](Cc1c[nH]c2ccccc12)C(=O)N[C@@H](Cc1ccccc1)C(=O)N[C@@H](C(=O)N[C@H](C(=O)N[C@H](C(=O)O)C(C)C)C(C)C)[C@H](C)O` [12R] ({Tetradecanoyl(3R-OH)}-WS[dW]F[dT]VV-OH), the MIC in experiment [1] is 16 µg/mL (≈ 13.9 µM); in experiment [2], 16 µg/mL (≈ 13.9 µM); in the experiment with S. aureus strain 4-121 it was 32 µg/mL (≈ 27.8 µM); with S. aureus strain 4-131, more than 256 µg/mL; in the experiment with S. aureus strain 4-133, 256 µg/mL (≈ 223 µM); against S. aureus strain 4-134, more than 256 µg/mL. Also, the MIC in the experiment on S. aureus strain 4-139 was 4 µg/mL (≈ 3.48 µM); against S. aureus strain 4-144, 8 µg/mL (≈ 6.95 µM); with S. aureus strain 4-145 it was 16 µg/mL (≈ 13.9 µM); against S. aureus strain 4-153, 16 µg/mL (≈ 13.9 µM); in the experiment with S. aureus strain 4-156, 4 µg/mL (≈ 3.48 µM); in the experiment with S. aureus strain 4-157 it was 16 µg/mL (≈ 13.9 µM). In addition, the MIC in the experiment with S. aureus strain 4-159 was 8 µg/mL (≈ 6.95 µM); against S. aureus strain 4-162, more than 256 µg/mL; against S. aureus strain 4-170 it was 4 µg/mL (≈ 3.48 µM); against S. aureus strain 4-172 it was 8 µg/mL (≈ 6.95 µM); in the experiment on S. aureus strain 4-173, 8 µg/mL (≈ 6.95 µM); in the experiment with S. aureus strain A-165, 256 µg/mL (≈ 223 µM).
On to `CCCCCCCCCCC[C@H](O)CC(=O)N[C@@H](Cc1c[nH]c2ccccc12)C(=O)N[C@@H](CO)C(=O)N[C@H](Cc1c[nH]c2ccccc12)C(=O)N[C@@H](Cc1ccccc1)C(=O)N[C@@H](C(=O)N[C@H](C(=O)N[C@H](C(=O)O)C(C)C)C(C)C)[C@H](C)O` [12S] ({Tetradecanoyl(3S-OH)}-WS[dW]F[dT]VV-OH), for which the MIC in experiment [1] is reported as 8 µg/mL (≈ 6.95 µM); in [2], 16 µg/mL (≈ 13.9 µM); with S. aureus strain 4-121, 32 µg/mL (≈ 27.8 µM); against S. aureus strain 4-131, more than 256 µg/mL; against S. aureus strain 4-133, 256 µg/mL (≈ 223 µM); in the experiment on S. aureus strain 4-134 it was more than 256 µg/mL. For the same molecule, the MIC in the experiment on S. aureus strain 4-139 turned out to be 8 µg/mL (≈ 6.95 µM); against S. aureus strain 4-144, 16 µg/mL (≈ 13.9 µM); with S. aureus strain 4-145 it was 32 µg/mL (≈ 27.8 µM); against S. aureus strain 4-153 it was 16 µg/mL (≈ 13.9 µM); against S. aureus strain 4-156 it was 8 µg/mL (≈ 6.95 µM); with S. aureus strain 4-157 it was 16 µg/mL (≈ 13.9 µM). Besides, the MIC is recorded as 16 µg/mL (≈ 13.9 µM) in the experiment on S. aureus strain 4-159; more than 256 µg/mL with S. aureus strain 4-162; 8 µg/mL (≈ 6.95 µM) with S. aureus strain 4-170; 8 µg/mL (≈ 6.95 µM) against S. aureus strain 4-172; 16 µg/mL (≈ 13.9 µM) against S. aureus strain 4-173; 256 µg/mL (≈ 223 µM) in the experiment with S. aureus strain A-165.
With `CCCCCCCCCCC[C@@H](O)CC(=O)N[C@@H](Cc1c[nH]c2ccccc12)C(=O)N[C@@H](CO)C(=O)N[C@H](Cc1c[nH]c2ccccc12)C(=O)N[C@@H](Cc1ccccc1)C(=O)N[C@@H](C(=O)N[C@@H](C)C(=O)N[C@H](C(=O)O)C(C)C)[C@H](C)O` [13R] ({Tetradecanoyl(3R-OH)}-WS[dW]F[dT]AV-OH), the minimum inhibitory concentration (MIC) in [1] is recorded as 4 µg/mL (≈ 3.56 µM); in experiment [2], 128 µg/mL (≈ 114 µM); with S. aureus strain 4-121, 256 µg/mL (≈ 228 µM); in the experiment with S. aureus strain 4-131, more than 256 µg/mL; against S. aureus strain 4-133, more than 256 µg/mL; in the experiment on S. aureus strain 4-134, more than 256 µg/mL. Moreover, the MIC was 8 µg/mL (≈ 7.13 µM) in the experiment with S. aureus strain 4-139; 8 µg/mL (≈ 7.13 µM) with S. aureus strain 4-144; 16 µg/mL (≈ 14.3 µM) with S. aureus strain 4-145; 32 µg/mL (≈ 28.5 µM) in the experiment with S. aureus strain 4-153; 16 µg/mL (≈ 14.3 µM) with S. aureus strain 4-156; 32 µg/mL (≈ 28.5 µM) in the experiment with S. aureus strain 4-157. In addition, the MIC was 16 µg/mL (≈ 14.3 µM) in the experiment with S. aureus strain 4-159; more than 256 µg/mL against S. aureus strain 4-162; 8 µg/mL (≈ 7.13 µM) in the experiment on S. aureus strain 4-170; 8 µg/mL (≈ 7.13 µM) against S. aureus strain 4-172; 8 µg/mL (≈ 7.13 µM) in the experiment on S. aureus strain 4-173; more than 256 µg/mL with S. aureus strain A-165. For the same molecule, the “fold decrease in activity against the methicillin-resistant strain” value in experiment [2] is listed as 32 fold.
Turning to `CCCCCCCCCCC[C@H](O)CC(=O)N[C@@H](Cc1c[nH]c2ccccc12)C(=O)N[C@@H](CO)C(=O)N[C@H](Cc1c[nH]c2ccccc12)C(=O)N[C@@H](Cc1ccccc1)C(=O)N[C@@H](C(=O)N[C@@H](C)C(=O)N[C@H](C(=O)O)C(C)C)[C@H](C)O` [13S] ({Tetradecanoyl(3S-OH)}-WS[dW]F[dT]AV-OH), the MIC in [1] was 2 µg/mL (≈ 1.78 µM); in [2] it was 64 µg/mL (≈ 57 µM); against S. aureus strain 4-121 it was 256 µg/mL (≈ 228 µM); against S. aureus strain 4-131, more than 256 µg/mL; in the experiment on S. aureus strain 4-133 it was more than 256 µg/mL; against S. aureus strain 4-134, more than 256 µg/mL. Besides, the MIC with S. aureus strain 4-139 came to 8 µg/mL (≈ 7.13 µM); with S. aureus strain 4-144, 16 µg/mL (≈ 14.3 µM); in the experiment on S. aureus strain 4-145, 32 µg/mL (≈ 28.5 µM); with S. aureus strain 4-153 it was 32 µg/mL (≈ 28.5 µM); in the experiment with S. aureus strain 4-156 it was 8 µg/mL (≈ 7.13 µM); in the experiment with S. aureus strain 4-157, 32 µg/mL (≈ 28.5 µM). In addition, the MIC against S. aureus strain 4-159 is given as 8 µg/mL (≈ 7.13 µM); against S. aureus strain 4-162, more than 256 µg/mL; against S. aureus strain 4-170 it was 8 µg/mL (≈ 7.13 µM); in the experiment with S. aureus strain 4-172, 8 µg/mL (≈ 7.13 µM); in the experiment on S. aureus strain 4-173, 8 µg/mL (≈ 7.13 µM); in the experiment with S. aureus strain A-165 it was more than 256 µg/mL. In addition, the “fold decrease in activity against the methicillin-resistant strain” value in [2] is recorded as 32 fold.
